Results from patent US11345681B1, “Inhibitors of fibroblast growth factor receptor kinases” (Kinnate Biopharma Inc., priority 2020, dated 2022).

Target: Wild type FGFR2 (Homo sapiens (Human), UniProt P21802)
Experiment: FGFR2 kinase assay (fluorescence-based microfluidic mobility shift assay)
Type: biochemical
Details: wild type FGFR2 0.06 nM, 100 μM ATP, 80 minutes at room temperature; class symbols

Chain of Wild type FGFR2 (P21802 22-821): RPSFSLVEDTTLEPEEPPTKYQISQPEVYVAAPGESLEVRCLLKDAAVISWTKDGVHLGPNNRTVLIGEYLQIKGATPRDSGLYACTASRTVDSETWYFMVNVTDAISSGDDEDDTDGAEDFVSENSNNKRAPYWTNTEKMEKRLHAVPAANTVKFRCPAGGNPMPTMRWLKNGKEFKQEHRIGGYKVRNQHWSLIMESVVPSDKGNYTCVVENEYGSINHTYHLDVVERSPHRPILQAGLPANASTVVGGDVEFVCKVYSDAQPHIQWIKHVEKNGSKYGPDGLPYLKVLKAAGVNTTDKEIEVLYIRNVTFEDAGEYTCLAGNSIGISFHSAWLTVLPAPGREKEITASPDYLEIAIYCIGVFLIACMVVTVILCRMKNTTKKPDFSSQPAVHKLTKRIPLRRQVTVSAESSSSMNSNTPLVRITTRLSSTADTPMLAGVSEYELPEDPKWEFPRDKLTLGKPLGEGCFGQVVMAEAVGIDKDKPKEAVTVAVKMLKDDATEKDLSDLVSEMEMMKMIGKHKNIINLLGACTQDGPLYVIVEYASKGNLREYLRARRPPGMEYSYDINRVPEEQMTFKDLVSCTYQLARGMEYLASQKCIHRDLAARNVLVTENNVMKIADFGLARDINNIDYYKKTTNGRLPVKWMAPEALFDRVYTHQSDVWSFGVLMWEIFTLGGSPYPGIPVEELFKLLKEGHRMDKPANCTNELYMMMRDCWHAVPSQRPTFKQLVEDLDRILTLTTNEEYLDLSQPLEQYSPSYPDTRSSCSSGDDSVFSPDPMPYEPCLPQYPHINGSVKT

Row | SMILES | IC50
1 | C=CC(=O)N1C[C@@H](n2nc(C#Cc3c(F)c(F)c4c(ncn4C4CC4)c3F)c(C(N)=O)c2NC)C[C@@H]1COC [Example 153, 3-[2-(1-cyclopropyl-4,6,7-trifluoro-1,3-benzodiazol-5-yl)ethynyl]-1-[(3S,5R)-5-(methoxymethyl)-1-(prop-2-enoyl)pyrrolidin-3-yl]-5-(methylamino)pyrazole-4-carboxamide] | ≤ 100 nM
2 | C=CC(=O)N1C[C@@H](n2nc(C#Cc3cc4ncn(CC)c4c(F)c3F)c(C(N)=O)c2NC)C[C@@H]1COC(F)F [Example 154, 1-[(3S,5R)-5-[(Difluoromethoxy)methyl]-1-(prop-2-enoyl)pyrrolidin-3-yl]-3-[2-(1-ethyl-6,7-difluoro-1,3-benzodiazol-5-yl)ethynyl]-5-(methylamino)pyrazole-4-carboxamide] | ≤ 100 nM
3 | C=CC(=O)N1C[C@@H](n2nc(C#Cc3ccc4c(c3)ncn4C3CC3)c(C(N)=O)c2NC)C[C@@H]1COC(F)F [Example 155, 3-[2-(1-Cyclopropyl-1,3-benzodiazol-5-yl)ethynyl]-1-[(3S,5R)-5-[(difluoromethoxy)methyl]-1-(prop-2-enoyl)pyrrolidin-3-yl]-5-(methylamino)pyrazole-4-carboxamide] | ≤ 100 nM
4 | C=CC(=O)N1C[C@@H](n2nc(C#Cc3c(F)cc4c(ncn4C4CC4)c3F)c(C(N)=O)c2NC)C[C@@H]1COC(F)F [Example 156, 1-((3S,5R)-1-Acryloyl-5-((difluoromethoxy)methyl)pyrrolidin-3-yl)-3-((1-cyclopropyl-4,6-difluoro-1H-benzo[d]imidazol-5-yl)ethynyl)-5-(methylamino)-1H-pyrazole-4-carboxamide] | ≤ 100 nM
5 | C=CC(=O)N1C[C@@H](n2nc(C#Cc3c(F)c(F)c4c(ncn4CC)c3F)c(C(N)=O)c2NC)C[C@@H]1COC [Example 157, 3-[2-(1-Ethyl-4,6,7-trifluoro-1,3-benzodiazol-5-yl)ethynyl]-1-[(3S,5R)-5-(methoxymethyl)-1-(prop-2-enoyl)pyrrolidin-3-yl]-5-(methylamino)pyrazole-4-carboxamide] | ≤ 100 nM
6 | C=CC(=O)N1C[C@@H](n2nc(C#Cc3cc4ncn(C5CC5)c4c(F)c3F)c(C(N)=O)c2NC)C[C@@H]1C [Example 158, 3-[2-(1-cyclopropyl-6,7-difluoro-1,3-benzodiazol-5-yl)ethynyl]-1-[(3S,5S)-5-methyl-1-(prop-2-enoyl)pyrrolidin-3-yl]-5-(methylamino)pyrazole-4-carboxamide] | ≤ 100 nM
7 | C=CC(=O)N1C[C@@H](n2nc(C#Cc3cc4ncn(C5CC5)c4cc3F)c(C(N)=O)c2NC)C[C@@H]1COC(F)F [Example 161, 1-((3S,5R)-1-acryloyl-5-((difluoromethoxy)methyl)pyrrolidin-3-yl)-3-((1-cyclopropyl-6-fluoro-1H-benzo[d]imidazol-5-yl)ethynyl)-5-(methylamino)-1H-pyrazole-4-carboxamide] | ≤ 100 nM
8 | C=CC(=O)N1C[C@@H](n2nc(C#Cc3c(F)cc4c(ncn4C4CC4)c3F)c(C(N)=O)c2NC)C[C@@H]1C(F)F [Example 163, 3-[2-(1-Cyclopropyl-4,6-difluoro-1,3-benzodiazol-5-yl)ethynyl]-1-[(3S,5R)-5-(difluoromethyl)-1-(prop-2-enoyl)pyrrolidin-3-yl]-5-(methylamino)pyrazole-4-carboxamide] | ≤ 100 nM
9 | C=CC(=O)N1C[C@@H](n2nc(C#Cc3cc4ncn(C5CC5)c4cc3F)c(C(N)=O)c2NC)C[C@H]1C [Example 164, 1-((3S,5R)-1-Acryloyl-5-methylpyrrolidin-3-yl)-3-((1-cyclopropyl-6-fluoro-1H-benzo[d]imidazol-5-yl)ethynyl)-5-(methylamino)-1H-pyrazole-4-carboxamide] | ≤ 100 nM
10 | C=CC(=O)N1C[C@@H](n2nc(C#Cc3c(F)cc4c(ncn4C4CC4)c3F)c(C(N)=O)c2NC)C[C@H]1C [Example 165, 3-[2-(1-Cyclopropyl-4,6-difluoro-1,3-benzodiazol-5-yl)ethynyl]-1-[(3S,5R)-5-methyl-1-(prop-2-enoyl)pyrrolidin-3-yl]-5-(methylamino)pyrazole-4-carboxamide] | ≤ 100 nM
11 | C=CC(=O)N1CC[C@H](n2nc(C#Cc3cc4ncn(C5CC5)c4cc3F)c(C(N)=O)c2N)C1 [Example 168, 5-Amino-3-[2-(1-cyclopropyl-6-fluoro-1,3-benzodiazol-5-yl)ethynyl]-1-[(3S)-1-(prop-2-enoyl)pyrrolidin-3-yl]pyrazole-4-carboxamide] | ≤ 100 nM
12 | C=CC(=O)N1C[C@@H](n2nc(C#Cc3cc4ncn(C5CC5)c4cc3F)c(C(N)=O)c2NC)C[C@@H]1C [Example 169, 1-((3S,5S)-1-Acryloyl-5-methylpynolidin-3-yl)-3-((1-cyclopropyl-6-fluoro-1H-benzo[d]imidazol-5-yl)ethynyl)-5-(methylamino)-1H-pyrazole-4-carboxamide] | ≤ 100 nM
13 | C=CC(=O)N1C[C@@H](n2nc(C#Cc3cc4ncn(C5CC5)c4cc3F)c(C(N)=O)c2NC)C[C@@H]1C(F)F [Example 170, 3-[2-(1-Cyclopropyl-6-fluoro-1,3-benzodiazol-5-yl)ethynyl]-1-[(3S,5R)-5-(difluoromethyl)-1-(prop-2-enoyl)pyrrolidin-3-yl]-5-(methylamino)pyrazole-4-carboxamide] | ≤ 100 nM
14 | C=CC(=O)N1CC[C@H](n2nc(C#Cc3cc4ncn(C5CC5)c4c(F)c3F)c(C(N)=O)c2NC)C1 [Example 171] | ≤ 100 nM
15 | C=C(F)C(=O)N1CC(n2nc(C#Cc3cc4ncn(C5CC5)c4cc3F)c(C(N)=O)c2NC)C1 [Example 172, 3-((1-Cyclopropyl-6-fluoro-1H-benzo[d]imidazol-5-yl)ethynyl)-1-(1-(2-fluoroacryloyl)azetidin-3-yl)-5-(methylamino)-1H-pyrazole-4-carboxamide] | ≤ 100 nM
16 | C=C(F)C(=O)N1CC(n2nc(C#Cc3c(F)cc4c(ncn4C4CC4)c3F)c(C(N)=O)c2NC)C1 [Example 173, 3-((1-Cyclopropyl-4,6-difluoro-1H-benzo[d]imidazol-5-yl)ethynyl)-1-(1-(2-fluoroacryloyl)azetidin-3-yl)-5-(methylamino)-1H-pyrazole-4-carboxamide] | ≤ 100 nM
17 | C=CC(=O)N1CC(n2nc(C#Cc3cc4ncn(C5CC5)c4cc3F)c(C(N)=O)c2NC)C1 [Example 175, 3-[2-(1-cyclopropyl-6-fluoro-1,3-benzodiazol-5-yl)ethynyl]-5-(methylamino)-1-[1-(prop-2-enoyl)azetidin-3-yl]pyrazole-4-carboxamide] | ≤ 100 nM
18 | C=CC(=O)N1C[C@@H](n2nc(C#Cc3cc4ncn(C5CC5)c4cc3F)c(C(N)=O)c2NC)C[C@@H]1CF [Example 176, 1-((3S,5R)-1-acryloyl-5-(fluoromethyl)pyrrolidin-3-yl)-3-((1-cyclopropyl-6-fluoro-1H-benzo[d]imidazol-5-yl)ethynyl)-5-(methylamino)-1H-pyrazole-4-carboxamide] | ≤ 100 nM
19 | C=CC(=O)N1C[C@@H](n2nc(C#Cc3c(F)cc4[nH]cnc4c3F)c(C(N)=O)c2NC)C[C@@H]1COC [Example 177, 1-((3S,5R)-1-acryloyl-5-(methoxymethyl)pyrrolidin-3-yl)-3-((4,6-difluoro-1H-benzo[d]imidazol-5-yl)ethynyl)-5-(methylamino)-1H-pyrazole-4-carboxamide] | ≤ 100 nM
20 | C=CC(=O)N1C[C@@H](n2nc(C#Cc3ccc4c(c3)ncn4C3CC3)c(C(N)=O)c2NC)C[C@@H]1CF [Example 178, 1-((3S,5R)-1-Acryloyl-5-(fluoromethyl)pyrrolidin-3-yl)-3-((1-cyclopropyl-1H-benzo[d]imidazol-5-yl)ethynyl)-5-(methylamino)-1H-pyrazole-4-carboxamide] | ≤ 100 nM
21 | C=CC(=O)N1C[C@@H](n2nc(C#Cc3c(F)cc4c(ncn4C4CC4)c3F)c(C(N)=O)c2NC)C[C@@H]1CF [Example 179, 1-((3S,5R)-1-Acryloyl-5-(fluoromethyl)pyrrolidin-3-yl)-3-((1-cyclopropyl-4,6-difluoro-1H-benzo[d]imidazol-5-yl)ethynyl)-5-(methylamino)-1H-pyrazole-4-carboxamide] | ≤ 100 nM
22 | C=CC(=O)N1C[C@@H](n2nc(C#Cc3cc4ncn(C5CC5)c4cc3F)c(C(N)=O)c2NC)C[C@H]1CF [Example 180, 3-[2-(1-Cyclopropyl-6-fluoro-1,3-benzodiazol-5-yl)ethynyl]-1-[(3S,5S)-5-(fluoromethyl)-1-(prop-2-enoyl)pyrrolidin-3-yl]-5-(methylamino)pyrazole-4-carboxamide] | ≤ 100 nM
23 | C=CC(=O)N1C[C@@H](n2nc(C#Cc3c(F)cc4c(ncn4C4CC4)c3F)c(C(N)=O)c2NC)C[C@H]1CF [Example 181, 3-[2-(1-Cyclopropyl-4,6-difluoro-1,3-benzodiazol-5-yl)ethynyl]-1-[(3S,5S)-5-(fluoromethyl)-1-(prop-2-enoyl)pyrrolidin-3-yl]-5-(methylamino)pyrazole-4-carboxamide] | ≤ 100 nM
24 | C#CC(=O)N1C[C@@H](n2nc(C#Cc3cc4ncn(C5CC5)c4cc3F)c(C(N)=O)c2NC)C[C@@H]1COC [Example 182, 3-((1-Cyclopropyl-6-fluoro-1H-benzo[d]imidazol-5-yl)ethynyl)-1-((3S,5R)-5-(methoxymethyl)-1-propioloylpyrrolidin-3-yl)-5-(methylamino)-1H-pyrazole-4-carboxamide] | ≤ 100 nM
25 | CC#CC(=O)N1C[C@@H](n2nc(C#Cc3cc4ncn(C5CC5)c4cc3F)c(C(N)=O)c2NC)C[C@@H]1COC [Example 183, 1-((3S,5R)-1-(But-2-ynoyl)-5-(methoxymethyl)pyrrolidin-3-yl)-3-((1-cyclopropyl-6-fluoro-1H-benzo[d]imidazol-5-yl)ethynyl)-5-(methylamino)-1H-pyrazole-4-carboxamide] | ≤ 100 nM
26 | C#CC(=O)N1C[C@@H](n2nc(C#Cc3c(F)cc4c(ncn4C4CC4)c3F)c(C(N)=O)c2NC)C[C@@H]1COC [Example 184, 3-[2-(1-cyclopropyl-4,6-difluoro-1,3-benzodiazol-5-yl)ethynyl]-1-[(3S,5R)-5-(methoxymethyl)-1-(prop-2-ynoyl)pyrrolidin-3-yl]-5-(methylamino)pyrazole-4-carboxamide] | ≤ 100 nM
